These results are taken from patent US12606541B2, “PPARg modulators and methods of use” (Eisai R&D Management Co., Ltd., priority 2020, dated 2026).

pIC50: −log10 of the molar value. Like-named read-outs stand apart in the source and are kept apart here.

One assay relates to UM-UC-9 engineered cells. The assay can be described thus: Cell proliferation / short-term viability assay, CellTiter-Glo 144 h. The assay is classed as cell-based, human. The following applies: read-out: CTGlo 144 h UMUC9.5, G150. The essentials: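 UM-UC-9 engineered assay-ready cells seeded at 500 cells/well in high-glucose DMEM/10% FBS, treated from dose-response plates, grown at 37° C, 5% CO2. CellTiter-Glo 2.0 luminescence read on day 7, with a day-0 pretreatment plate as T0 reference and DMSO wells as negative control.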
In general terms: In ATP-based viability assays light output follows the ATP content of the culture.

Another assay concerns the target T1, His6-TEV-PPARγ-(234-505) (Homo sapiens, UniProt P37231).
T1 construct: The His6-TEV-PPARγ-(234-505) protein for assay was expressed and purified; TEV cleavage site (N); made in house
T1 sequence (P37231 234-505): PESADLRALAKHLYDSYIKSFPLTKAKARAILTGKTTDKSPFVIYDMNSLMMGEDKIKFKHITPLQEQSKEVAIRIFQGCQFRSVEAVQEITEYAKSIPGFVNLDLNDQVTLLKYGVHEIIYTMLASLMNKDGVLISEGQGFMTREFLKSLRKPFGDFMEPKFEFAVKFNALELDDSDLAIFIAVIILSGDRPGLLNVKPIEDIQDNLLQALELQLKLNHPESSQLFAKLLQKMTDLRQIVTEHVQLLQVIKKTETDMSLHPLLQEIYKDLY
The assay can be described thus: TR-FRET Assay to Measure Co-R Peptide Recruitment to PPARγ. The assay is classed as biochemical. The following applies: Co-R peptide (SMRT-ID2) recruitment; top final concentration 20 μM; read-out: TR-FRET i-Ag; AC50. The essentials:
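His-tagged PPARγ (or controls) was preincubated with compound for 20 minutes at room temperature, then 5 nM anti-His terbium antibody and 200 nM FITC-labeled SMRT-ID2 corepressor peptide (final) were added for a further hour. TR-FRET signal was normalized to percent response using 500 nM T0070907 and DMSO controls.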

As to `COc1cc(-c2cc(C(=O)N3CC[C@H](C(=O)Nc4ccc5c(c4)COB5O)CC34CC4)[nH]n2)c(F)cn1` [Example 523, (S)-4-(3-(5-fluoro-2-methoxypyridin-4-yl)-1H-pyrazole-5-carbonyl)-N-(1-hydroxy-1,3-dihydrobenzo[c][1,2]oxaborol-5-yl)-4-azaspiro[2.5]octane-7-carboxamide], the pIC50 in the assay with UM-UC-9 engineered cells (Homo sapiens, UM-UC-9, 144 h) was 7.27. Besides, the AC50 on His6-TEV-PPARγ-(234-505) was 5.3 nM.

Consider `COc1cc(-c2cc(C(=O)N3CC[C@H](C(=O)NCc4ccncc4C(F)(F)F)CC34CC4)[nH]n2)c(F)cn1` [Example 525, (S)-4-(3-(5-fluoro-2-methoxypyridin-4-yl)-1H-pyrazole-5-carbonyl)-N-((3-(trifluoromethyl)pyridin-4-yl)methyl)-4-azaspiro[2.5]octane-7-carboxamide], for which the pIC50 in the assay on UM-UC-9 engineered cells (Homo sapiens, UM-UC-9, 144 h) was 7.72. Further, the AC50 on His6-TEV-PPARγ-(234-505) was found to be 7 nM.

As to `COc1cc(-c2cc(C(=O)N3CC[C@H](C(=O)NCc4c(C(F)(F)F)nn(C)c4Cl)CC34CC4)[nH]n2)c(F)cn1` [Example 526, (S)—N-((5-chloro-1-methyl-3-(trifluoromethyl)-1H-pyrazol-4-yl)methyl)-4-(3-(5-fluoro-2-methoxypyridin-4-yl)-1H-pyrazole-5-carbonyl)-4-azaspiro[2.5]octane-7-carboxamide], the pIC50 in the assay with UM-UC-9 engineered cells (Homo sapiens, UM-UC-9, 144 h) is 8.15. Further, the AC50 on His6-TEV-PPARγ-(234-505) is 3.7 nM.

For “(1R,3S,5S)-8-[5-(5-fluoro-2-methoxypyridin-4-yl)-1H-pyrazole-3-carbonyl]-N-[(1r,4r)-4-(2-methoxyethoxy)-4-(trifluoromethyl)cyclohexyl]-8-azabicyclo[3.2.1]octane-3-carboxamide and (1R,3S,5S)-8-[5-(5-fluoro-2-methoxypyridin-4-yl)-1H-pyrazole-3-carbonyl]-N-[(1s,4s)-4-(2-methoxyethoxy)-4-(trifluoromethyl)cyclohexyl]-8-azabicyclo[3.2.1]octane-3-carboxamide [Example 304]”, the pIC50 with UM-UC-9 engineered cells is 6.70. Besides, the AC50 on His6-TEV-PPARγ-(234-505) was 44.4 nM.

As for “(1R,3s,5S)-8-(5-(5-fluoro-2-methoxypyridin-4-yl)-1H-pyrazole-3-carbonyl)-N—((R)-1-(3-(trifluoromethyl)-1,2,4-oxadiazol-5-yl)ethyl)-8-azabicyclo[3.2.1]octane-3-carboxamide and (1R,3s,5S)-8-(5-(5-fluoro-2-methoxypyridin-4-yl)-1H-pyrazole-3-carbonyl)-N—(S)-1-(3-(trifluoromethyl)-1,2,4-oxadiazol-5-yl)ethyl)-8-azabicyclo[3.2.1]octane-3-carboxamide [Example 290]”, in the assay with UM-UC-9 engineered cells, the pIC50 was 6.08. The AC50 on His6-TEV-PPARγ-(234-505) is 400 nM.

With “(1R,3s,5S)—N-(3-chlorobenzyl)-8-(5-(5-fluoro-2-methoxypyridin-4-yl)-1H-pyrazole-3-carbonyl)-8-azabicyclo[3.2.1]octane-3-carboxamide and (1R,3r,5S)—N-(3-chlorobenzyl)-8-(5-(5-fluoro-2-methoxypyridin-4-yl)-1H-pyrazole-3-carbonyl)-8-azabicyclo[3.2.1]octane-3-carboxamide [Example 160]”, in the assay on UM-UC-9 engineered cells, the pIC50 was 7.69. Also, the AC50 at His6-TEV-PPARγ-(234-505) came to 11.6 nM.

“(1R,3s,5S)—N-((1r,4R)-4-ethoxy-4-(trifluoromethyl)cyclohexyl)-8-(5-(5-fluoro-2-methoxypyridin-4-yl)-1H-pyrazole-3-carbonyl)-8-azabicyclo[3.2.1]octane-3-carboxamide and (1R,3s,5S)—N-((1s,4S)-4-ethoxy-4-(trifluoromethyl)cyclohexyl)-8-(5-(5-fluoro-2-methoxypyridin-4-yl)-1H-pyrazole-3-carbonyl)-8-azabicyclo[3.2.1]octane-3-carboxamide [Example 303]”: the pIC50 in the assay on UM-UC-9 engineered cells is 7.38. In addition, the AC50 on His6-TEV-PPARγ-(234-505) came out at 7.3 nM.

On to “(2S,4R)-1-(5-(5-fluoro-2-methoxypyridin-4-yl)-1H-pyrazole-3-carbonyl)-N-((1r,4R)-4-hydroxy-4-(trifluoromethyl)cyclohexyl)-2-(trifluoromethyl)piperidine-4-carboxamide and (2S,4S)-1-(5-(5-fluoro-2-methoxypyridin-4-yl)-1H-pyrazole-3-carbonyl)-N-((1r,4S)-4-hydroxy-4-(trifluoromethyl)cyclohexyl)-2-(trifluoromethyl)piperidine-4-carboxamide [Example 367]”, for which the pIC50 with UM-UC-9 engineered cells was 7.92. Further, the AC50 at His6-TEV-PPARγ-(234-505) came out at 22 nM.

On to “(R)-4-(5-(5-fluoro-2-methoxy-3-methylpyridin-4-yl)-1H-pyrazole-3-carbonyl)-N-((1r,4R)-4-hydroxy-4-(trifluoromethyl)cyclohexyl)-4-azaspiro[2.5]octane-7-carboxamide and (S)-4-(5-(5-fluoro-2-methoxy-3-methylpyridin-4-yl)-1H-pyrazole-3-carbonyl)-N-((1r,4S)-4-hydroxy-4-(trifluoromethyl)cyclohexyl)-4-azaspiro[2.5]octane-7-carboxamide [Example 493]”, for which the pIC50 in the assay on UM-UC-9 engineered cells was 7.05. The AC50 at His6-TEV-PPARγ-(234-505) is 12.6 nM.

Consider “(S)-1-(5-(5-fluoro-2-methoxypyridin-4-yl)-1H-pyrazole-3-carbonyl)-N-((1r,4S)-4-hydroxy-4-(trifluoromethyl)cyclohexyl)-2,2-dimethylpiperidine-4-carboxamide and (R)-1-(5-(5-fluoro-2-methoxypyridin-4-yl)-1H-pyrazole-3-carbonyl)-N-((1r,4R)-4-hydroxy-4-(trifluoromethyl)cyclohexyl)-2,2-dimethylpiperidine-4-carboxamide [Example 407]”, for which the pIC50 in the assay with UM-UC-9 engineered cells was 7.64. Moreover, on His6-TEV-PPARγ-(234-505), the AC50 turned out to be 30.3 nM.

As for “(S)-4-(5-(2-chloro-5-fluoropyridin-4-yl)-1H-pyrazole-3-carbonyl)-N-((1r,4S)-4-hydroxy-4-(trifluoromethyl)cyclohexyl)-4-azaspiro[2.5]octane-7-carboxamide and (R)-4-(5-(2-chloro-5-fluoropyridin-4-yl)-1H-pyrazole-3-carbonyl)-N-((1r,4R)-4-hydroxy-4-(trifluoromethyl)cyclohexyl)-4-azaspiro[2.5]octane-7-carboxamide [Example 529]”, the pIC50 in the assay on UM-UC-9 engineered cells is 7.47. For the same compound, the AC50 at His6-TEV-PPARγ-(234-505) was found to be 10.6 nM.

As to “(S)-4-(5-(5-fluoro-2-methoxypyridin-4-yl)-1H-pyrazole-3-carbonyl)-N-((1r,4S)-4-hydroxy-4-(perfluoroethyl)cyclohexyl)-4-azaspiro[2.5]octane-7-carboxamide and (S)-4-(5-(5-fluoro-2-methoxypyridin-4-yl)-1H-pyrazole-3-carbonyl)-N-((1s,4R)-4-hydroxy-4-(perfluoroethyl)cyclohexyl)-4-azaspiro[2.5]octane-7-carboxamide [Example 373]”, the pIC50 with UM-UC-9 engineered cells was 8.52. On His6-TEV-PPARγ-(234-505), the AC50 was determined as 11.7 nM.

Take “(S)-4-(5-(5-fluoro-2-methoxypyridin-4-yl)-1H-pyrazole-3-carbonyl)-N-((1s,4R)-4-(hydroxymethyl)-4-(trifluoromethyl)cyclohexyl)-4-azaspiro[2.5]octane-7-carboxamide and (S)-4-(5-(5-fluoro-2-methoxypyridin-4-yl)-1H-pyrazole-3-carbonyl)-N-((1r,4S)-4-(hydroxymethyl)-4-(trifluoromethyl)cyclohexyl)-4-azaspiro[2.5]octane-7-carboxamide [Example 408]”: the pIC50 in the assay with UM-UC-9 engineered cells is 8.14. For the same compound, at His6-TEV-PPARγ-(234-505), the AC50 stood at 6.3 nM.

As for “(S)-4-(5-(5-fluoro-2-methoxypyridin-4-yl)-1H-pyrazole-3-carbonyl)-N—(((S)-3-(trifluoromethyl)-5,6-dihydro-8H-[1,2,4]triazolo[3,4-c][1,4]oxazin-6-yl)methyl)-4-azaspiro[2.5]octane-7-carboxamide and (S)-4-(5-(5-fluoro-2-methoxypyridin-4-yl)-1H-pyrazole-3-carbonyl)-N—(((R)-3-(trifluoromethyl)-5,6-dihydro-8H-[1,2,4]triazolo[3,4-c][1,4]oxazin-6-yl)methyl)-4-azaspiro[2.5]octane-7-carboxamide [Example 357]”, the pIC50 in the assay on UM-UC-9 engineered cells was 5.66. The AC50 at His6-TEV-PPARγ-(234-505) is 45.1 nM.

As for “(S)-4-(5-(5-fluoro-2-methoxypyridin-4-yl)-1H-pyrazole-3-carbonyl)-N—((S)-1-(oxetan-3-yl)piperidin-3-yl)-4-azaspiro[2.5]octane-7-carboxamide and (S)-4-(5-(5-fluoro-2-methoxypyridin-4-yl)-1H-pyrazole-3-carbonyl)-N—((R)-1-(oxetan-3-yl)piperidin-3-yl)-4-azaspiro[2.5]octane-7-carboxamide [Example 421]”, in the assay with UM-UC-9 engineered cells, the pIC50 was 6.44. For the same compound, the AC50 on His6-TEV-PPARγ-(234-505) amounted to 182 nM.

Take “(S)—N-((1s,4R)-4-(1,1-difluoroethyl)-4-hydroxycyclohexyl)-4-(5-(5-fluoro-2-methoxypyridin-4-yl)-1H-pyrazole-3-carbonyl)-4-azaspiro[2.5]octane-7-carboxamide and (S)—N-((1r,4S)-4-(1,1-difluoroethyl)-4-hydroxycyclohexyl)-4-(5-(5-fluoro-2-methoxypyridin-4-yl)-1H-pyrazole-3-carbonyl)-4-azaspiro[2.5]octane-7-carboxamide [Example 375]”: the pIC50 in the assay with UM-UC-9 engineered cells is 8.80. For the same compound, on His6-TEV-PPARγ-(234-505), the AC50 came to 6.4 nM.
